# Measured values from patent US20160022599A1, “System and Method for Fabrication of Uniform Polymer Films Containing Nano and Micro Particles via Continuous Drying Process” (NEW JERSEY INSTITUTE OF TECHNOLOGY, priority 2013, published 2016).
# Columns and labels:
# [1] = cited from earlier work
# [2] = cited from earlier work; remark: listed apart in the source
# [3] = cited from earlier work; remark: listed apart in the source
# [4] = USP IV flow-through cell dissolution of films in SDS solution; assay type: physicochemical
# Experimental: The dissolution experiments were performed by cutting out a ⅜ inch diameter sample of film and placing it into a flow-though cell dissolution apparatus (USP IV, Sotax, Switzerland) while 118 mL (5.4 mg/mL) aqueous SDS passed through cells (internal diameter of 22.6 mm) at a rate of 16 mL per minute. The amount of API dissolved from the film was measured over time until 100% of drug was released.
# Dissolution experiments were performed using a flow-through cell dissolution apparatus (USP IV, Sotax, Switzerland) with cells of an internal diameter of 22.6 mm. Films were horizontally positioned in the cells with glass beads (1 mm in diameter) filling up the conical part at the bottom of each cell. Glass microfiber filters (GF/D grade, Whatman, Schenectady, N.Y., USA) were used in the filter-head. The temperature was maintained at 37±0.5° C. and a flow rate of 15 mL/min was used.
# During testing, the dissolution medium (20 mM SDS solution, 100 mL) was circulated by pumping it through each cell. Six samples were used and the average drug release and the standard deviation were plotted as a function of time.
# The dissolution behavior of the stripfilms made using the blend (HPMC and PVP) strip films containing GF nanoparticles was examined using a flow-through cell dissolution apparatus (USP IV, Sotax, Switzerland) with cells of an internal diameter of 22.6 mm. Six circular film samples (having an area of 0.712 cm^2) were punched out of each film and tested. For each film, six samples were horizontally positioned in the six cells with 6.5 g of glass beads (1 mm in diameter) filling up the conical part at the bottom of each cell. Pall HT Tuffryn Membrane Disc Filters (0.2 μm) were used for this study in the filter-head in each experiment. The temperature was maintained at 37±0.5° C., and a flow rate of 16 ml/min was used. During testing, a 100 ml dissolution medium (SDS solution (5.4 mg/ml)) was circulated by pumping it through each cell. […]
# [5] = USP IV flow-through cell dissolution of films in deionized water; assay type: physicochemical; settings: DI water media
# Experimental: Therefore, for the present disclosure, a flow-through cell dissolution apparatus (USP 4, Sotax, Switzerland) with cells of an internal diameter of 22.6 mm was employed. Circular film samples (having an area of 0.712 cm^2) were horizontally positioned in the cells with glass beads (1 mm in diameter) filling the top and bottom of each cell. […] The temperature was maintained at 37±0.5° C. and a flow rate of 16 mL/min was used. Dissolution experiments were carried out using two different media. […] For the second case, deionized (DI) water was used as the media. Six samples were used from each film (S-S8) and the average drug release was plotted as a function of time. To better understand the effect of SDIs on rate of drug release from HPMC films, two new formulations were prepared (formulation S7 and S8). In the first case a high molecular weight HPMC (E4M, Dow chemicals) was used to prepare films loaded with GF nanoparticles. In the second a higher concentration of HPMC ([…]) was used to prepare films containing GF nanoparticles (following the same procedure stated above). The percent drug loading and film thickness were kept same as formulations S-S8 and same dissolution testing protocols were followed. The release kinetics of GF from HPMC films was determined by finding the best fit for the release profiles. […]
# [6] = Drug particle size (laser diffraction / DLS) in suspension and after re-dispersion from films; assay type: physicochemical; settings: for d50, Tip Speed: 11.72 m/s / d50, Tip Speed: 14.66 m/s: WSMM, 100 μm media; for median size of suspension after milling of drug alone: no stabilizers
# Experimental: An aliquot of the suspensions was dispersed in a 10 ml stabilizer solution and the particle size of the suspensions was measured using a Beckman Coulter LS13320 after milling. The resulting drug suspensions were mixed with a 10% w/w solution of HPMC E15LV and glycerin in a ratio of 1:1, drug suspension to polymer solution. This suspension was stirred for 3 hours with a dual-propeller mixer (McMaster, Catalog no. 3471K5, Los Angeles, Calif., USA). The particle size of the suspensions was measured after mixing with the polymer solution to check for particle growth.
# The term “median size” here refers to the 50% vol. passing size of the cumulative volume distribution in LD and cumulant or z-average mean size in DLS. The griseofulvin particle size above 160 nm was measured in LD and the sizes below were measured using DLS. […] The particle size of un-milled drug suspension (in the presence of stabilizers), was also measured and referred as the 0th minute particle size.
# GF nanosuspensions were produced via WSMM utilizing a Microcermill (NETZSCH, Fine particle technology LLC, Exton, Pa.) as per previously described methods and processing conditions. HPMC and SDS were chosen as stabilizers. […] At the end of milling, a sample was taken from the holding tank of the mill and dispersed into 15 mL HPMC-SDS stabilizers solution (using a pipette) and the particle size distribution of GF in the sample was then measured using laser diffraction in Coulter LS13320 (Beckman Coulter, Miami, Fla.).
# The particle size distribution of GF was measured in suspensions after milling, after mixing with polymer solutions (S-S8) and from re-dispersed films using a laser diffraction technique. […] The size of SDIs (SSG, CCS and CP) was recorded for three cases: after incorporation into HPMC solution, before and after addition of GF nano-suspension and after film re-dispersion. Film re-dispersion was performed by dissolving a small piece of film (about 0.712 cm^2 in area) into 10 mL DI water followed by vortex mixing for 1 min. The same procedure was also followed for formulations S4-S8. Each experiment was performed in triplicate. […]
# Particle size measurement of drug nanoparticles in suspension is described herein. To re-disperse drug particles from films, circular punches of film of about 0.71 cm^2 in area were vortex mixed in 3 mL of DI water for 3-5 minutes.
# The particle size distribution of GF in the nano-suspensions was measured by laser diffraction in Coulter LS13320 (Beckman Coulter, Miami, Fla., USA). A sample of the suspension was taken at the end of milling from the holding tank of the mill. The sample was dispersed in 15 ml HPMC-SDS stabilizer solution by stirring with a pipette. The sample was added drop-wise until the polarization intensity differential scattering (PIDS) reached 40%.
# The same method was used to measure the particles size of GF nanoparticles re-dispersed in water from films. […] The sample particle size was measured after 10 min of magnetic stirring.
# [7] = Film disintegration time in water; assay type: physicochemical; settings: ⅝ inch diameter film in 10 ml of water; film about 16 micrometer (Example 8)
# Experimental: The drying temperature was kept constant at 60° C. Casting thickness was adjusted to 200 micron thickness using a Doctor blade film applicator. The film was dried for about 30 min, and the dried film thickness was measured to be about 16 micrometer. The disintegration time of dried films was noted by placing a ⅝ inch diameter film in 10 ml of water. The time taken by the film to disintegrate completely was about 10 seconds.
smiles,measurement,setting,value
"NC(=O)N=NC(N)=O [AZD, azodicarbonamide]",logP,[1]; Table 23,5.8
same,pKa,[2],3.9
same,Solubility in water at 4° C.,[3],35.0 µg/mL
same,dissolution profiles of films with vs without SDS,"[4]; SDS media, similarity and difference factors",statistically similar dissolution profiles with and without SDS
same,dissolution profiles of films with vs without SDS,[5],statistically similar dissolution profiles with and without SDS
"COC1=CC(=O)C[C@@H](C)[C@]12Oc1c(Cl)c(OC)cc(OC)c1C2=O [GF, griseofulvin]","partition co-efficient, log P",[1]; as quoted,1.1
same,particle size stability of nanosuspension on storage,[6]; 7 days of storage,the particle size was stable after 7 days of storage
same,"d50, Tip Speed: 11.72 m/s",[6]; time 0,21.845 microns
same,"d50, Tip Speed: 14.66 m/s",[6]; time 0,21.845 microns
same,"d50, Tip Speed: 11.72 m/s",[6]; time 4,1.378 microns
same,"d50, Tip Speed: 14.66 m/s",[6]; time 4,0.479 microns
same,"d50, Tip Speed: 11.72 m/s",[6]; time 8,0.378 microns
same,"d50, Tip Speed: 14.66 m/s",[6]; time 8,0.267 microns
same,"d50, Tip Speed: 11.72 m/s",[6]; time 16,0.149 microns
same,"d50, Tip Speed: 14.66 m/s",[6]; time 16,0.134 microns
same,"d50, Tip Speed: 11.72 m/s",[6]; time 32,0.122 microns
same,"d50, Tip Speed: 14.66 m/s",[6]; time 32,0.112 microns
same,"d50, Tip Speed: 11.72 m/s",[6]; time 64,0.106 microns
same,"d50, Tip Speed: 14.66 m/s",[6]; time 64,0.087 microns
same,"d50, Tip Speed: 11.72 m/s",[6]; time 120,0.084 microns
same,"d50, Tip Speed: 14.66 m/s",[6]; time 120,0.069 microns
same,"d50, Tip Speed: 11.72 m/s",[6]; time 180,0.069 microns
same,"d50, Tip Speed: 14.66 m/s",[6]; time 180,0.061 microns
same,"d50, Tip Speed: 11.72 m/s",[6]; time 240,0.067 microns
same,"d50, Tip Speed: 14.66 m/s",[6]; time 240,0.064 microns
same,"d50, Tip Speed: 11.72 m/s",[6]; time 300,0.062 microns
same,"d50, Tip Speed: 14.66 m/s",[6]; time 300,0.059 microns
same,"d50, Tip Speed: 11.72 m/s",[6]; time 360,0.060 microns
same,"d50, Tip Speed: 14.66 m/s",[6]; time 360,0.056 microns
same,median size of suspension after milling of drug alone,[6],4 um
same,final particle size at 360 min of milling,[6]; tip speed 11.72 m/s,60 nm
same,final particle size at 360 min of milling,[6]; tip speed 14.66 m/s,56 nm
same,solubility in water,[3]; as quoted,0.7 µg/mL
same,percent griseofulvin dissolved within five minutes,"[4]; 0.025 M SDS, about 18 micron HPMC film, 70 nm nanoparticles (Example 8)",about 100%
same,disintegration time of dried film,[7],about 10 seconds
"COc1ccc2cc([C@H](C)C(=O)O)ccc2c1 [NPX, naproxen]",median size of nanoparticles milled in the presence of HPMC alone,[6],147 nm
same,median size of suspension after milling of drug alone,[6],12 um
"COC1=CC(=O)C[C@@H](C)[C@]12Oc1c(Cl)c(OC)cc(OC)c1C2=O [as received powder, griseofulvin]",% of GF released in 50 minutes,"[4]; SDS solution […], FIG. 47",40%
